Assay results: patent publication US20260184707A1, “PHARMACEUTICAL COMPOUNDS FOR THE TREATMENT OF COMPLEMENT MEDIATED DISORDERS” (ALEXION PHARMACEUTICALS, INC., priority 2022, published 2026)
pIC50: −log10 of the molar value.

Target: T1, Human complement C1s enzyme (Homo sapiens, UniProt P09871)
T1 construct: purified from human serum, Complement Technology, Inc; purchased Complement Technology, Inc; host or cells: human serum (plasma-derived native protein)
T1 sequence (P09871 438-688 limits assumed): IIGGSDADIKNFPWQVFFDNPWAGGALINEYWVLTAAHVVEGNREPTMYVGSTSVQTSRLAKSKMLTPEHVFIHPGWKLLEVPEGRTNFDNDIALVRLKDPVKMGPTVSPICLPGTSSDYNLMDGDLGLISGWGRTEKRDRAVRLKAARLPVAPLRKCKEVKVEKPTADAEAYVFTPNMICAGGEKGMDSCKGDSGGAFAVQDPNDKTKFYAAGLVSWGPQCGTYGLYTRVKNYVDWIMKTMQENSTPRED
T1 sequence (P09871 16-437 partner limits assumed): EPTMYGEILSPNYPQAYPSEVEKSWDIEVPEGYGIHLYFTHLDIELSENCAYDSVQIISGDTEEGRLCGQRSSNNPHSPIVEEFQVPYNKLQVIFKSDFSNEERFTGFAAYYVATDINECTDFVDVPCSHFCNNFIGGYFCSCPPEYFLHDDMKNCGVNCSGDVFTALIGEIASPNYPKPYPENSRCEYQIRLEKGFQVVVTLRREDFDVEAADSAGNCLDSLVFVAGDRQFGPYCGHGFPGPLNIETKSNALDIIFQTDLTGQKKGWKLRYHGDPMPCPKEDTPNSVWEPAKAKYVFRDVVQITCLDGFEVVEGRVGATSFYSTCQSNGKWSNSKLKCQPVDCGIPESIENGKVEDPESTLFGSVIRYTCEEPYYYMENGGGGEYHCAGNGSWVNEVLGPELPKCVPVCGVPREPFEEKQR
Experiment: Human C1s enzyme assay
Assay type: biochemical
Settings: human complement C1s enzyme 1.16 nM, substrate Z-L-Lys-SBzl, A405; read-out: IC50 (Stars)
Outline: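 Serum-purified human C1s (1.16 nM final) preincubated 5 min at room temperature with compound in 50 mM Tris, 1 M NaCl, pH 7.5. Z-L-Lys-SBzl and DTNB added at 100 μM each; A405 recorded every 30 s. IC50 from nonlinear regression of reaction rates versus compound concentration.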

SMILES	pIC50
C[C@@H](Nc1cnc(-c2ccccc2F)n(CC(=O)NCc2cc3cnccc3[nH]2)c1=O)c1ccc2oc3ccccc3c2c1 [Compound 237, (R)-N-((1H-pyrrolo[3,2-c]pyr-idin-2-yl)methyl)-2-(5-((1-(dibenzo[b,d]furan-2-yl)ethyl)-amino)-2-(2-fluorophenyl)-6-oxopyrimidin-1(6H)-yl)acet-amide]	> 7.00
CO[C@@H]1CO[C@H]2[C@@H]1OC[C@H]2Oc1ccc(-c2ncc(N[C@H](C)c3ccc4oc5ccccc5c4c3)c(=O)n2CC(=O)NCc2cc3cnccc3[nH]2)cc1 [Compound 238, N-((1H-pyrrolo[3,2-c]pyridin-2-yl)methyl)-2-(5-(((R)-1-(dibenzo[b,d]furan-2-yl)ethyl)-amino)-2-(4-(((3R,3aR,6R, 6aR)-6-methoxyhexahydrofuro [3,2-b]furan-3-yl)oxy)phenyl)-6-oxopyrimidin-1(6H)-yl)acet-amide]	> 7.00
C[C@H](NC(=O)Cn1c(-c2ccccc2)ncc(N[C@H](C)c2ccc3oc4ccccc4c3c2)c1=O)c1cc2cnccc2[nH]1 [Compound 239, N-((S)-1-(1H-pyrrolo[3,2-c]pyridin-2-yl)ethyl)-2-(5-(((R)-1-(dibenzo[b,d]furan-2-yl)-ethyl)amino)-6-oxo-2-phenyl-pyrimidin-1(6H)-yl)acetamide]	< 6.00
O=C(Cn1c(-c2ccccc2)ncc(NC(=O)c2ccc(-c3ccccc3)c(F)c2)c1=O)NCc1cc2cnccc2[nH]1 [Compound 240, N-(1-(2-(((1H-pyrrolo[3,2-c]pyridin-2-yl)methyl)amino)-2-oxoethyl)-6-oxo-2-phenyl-1,6-dihydropyrimidin-5-yl)-2-fluoro-[1,1′-biphenyl]-4-carboxamide]	> 7.00
O=C(Cn1c(C2=CCCCC2)ncc(NCc2ccc3oc4ccccc4c3c2)c1=O)NCc1cc2cnccc2[nH]1 [Compound 241, N-((1H-pyrrolo[3,2-c]pyridin-2-yl)methyl)-2-(2-(cyclohex-1-en-1-yl)-5-((dibenzo[b,d]furan-2-ylmethyl)amino)-6-oxopyrimidin-1(6H)-yl)acet-amide]	> 7.00

More lines, now with the values ahead:

pIC50	SMILES
> 7.00	O=C(Cn1c(-c2cccnc2)ncc(NCc2ccc3oc4ccccc4c3c2)c1=O)NCc1cc2cnccc2[nH]1 [Compound 242, N-((1H-pyrrolo[3,2-c]pyridin-2-yl)methyl)-2-(5-((dibenzo [b,d]furan-2-ylmethyl)amino)-6-oxo-2-(pyridin-3-yl)pyrimi-din-1(6H)-yl)acetamide]
6.00 to 7.00	O=C(Cn1c(-c2ccccc2)ncc(NC(=O)C23CC(c4ccccc4)(C2)C3)c1=O)NCc1cc2cnccc2[nH]1 [Compound 243, N-(1-(2-(((1H-pyrrolo[3,2-c]pyridin-2-yl)methyl)amino)-2-oxoethyl)-6-oxo-2-phenyl-1,6-dihydropyrimidin-5-yl)-3-phenylbicyclo[1.1.1]pentane-1-carboxamide]
> 7.00	Cc1cc(F)cc(C)c1Nc1cnc(-c2ccccc2)n(CC(=O)NCc2cc3cnccc3[nH]2)c1=O [Compound 244, N-((1H-pyrrolo[3,2-c]pyridin-2-yl)methyl)-2-(5-((4-fluoro-2,6-dimethylphenyl)amino)-6-oxo-2-phenylpyrimidin-1(6H)-yl)acetamide]
> 7.00	O=C(Cn1c(-c2ccccc2)ncc(Nc2ccc3c(c2)oc2ccccc23)c1=O)NCc1cc2cnccc2[nH]1 [Compound 245]
> 7.00	O=C(Cn1cncc(NCc2ccc3oc4ccccc4c3c2)c1=O)NCc1cc2cnccc2[nH]1 [Compound 246, 2-[5-(Dibenzofuran-2-ylmethylamino)-6-oxo-pyrimidin-1-yl]-N-(1H-pyrrolo[3,2-c]pyridine-2-ylmethyl)acetamide]
> 7.00	Cc1ncc(NCc2ccc3oc4ccccc4c3c2)c(=O)n1CC(=O)NCc1cc2cnccc2[nH]1 [Compound 247, N-((1H-pyrrolo[3,2-c]pyridin-2-yl)methyl)-2-(5-((dibenzo [b,d]furan-2-ylmethyl)amino)-2-methyl-6-oxopyrimidin-1(6H)-yl)acetamide]
